Laboratory results taken from EP0426574A1, “Thiazole derivatives and antiulcer agents containing the same” (TERUMO KABUSHIKI KAISHA, priority 1989, dated 1991).
Where a name gives a salt, the structure may show the parent alone.

These molecules were tested on ethanol hydrochloric acid ulcer (assay: Inhibitory activity against ethanol hydrochloric acid ulcer). Conditions: SD male rats fasted 24 hours; 30mg/kg orally, one hour before 150 mM hydrochloric acid in 60% ethanol; ulcer index = total lesion length, one hour later.
Type: in vivo
Procedure: To SD male rats (weighing 150-250 g) fasted for 24 hours was administered orally a thiazole derivative of the invention. One hour later, a hydrochloric acid solution in ethanol (containing 150 mM hydrochloric acid in 60% ethanol) was orally given in a volume of 0.5 ml/100 g bodyweight.
One hour later, the animals were sacrificed with ether. The stomach was excised and, after formalin treatment, measured for the length (mm) of lesions developed in glandular portions of the stomach. Total length of the lesions per animal was taken as ulcer index.
Percent inhibition of ulceration as referred to in the table is a value obtained by reducing from 1 the ulcer index for the rat with a thiazole derivative of the invention orally given divided by the ulcer index for the orally non-administered rat and multiplying the value by 100. The calculation is conducted by the formula shown below. [formula]
In the case of `c1ccc(Nc2nc3cccnc3s2)cc1` [Example 2, 2-phenylamino[5,4-b]pyridothiazole hydrochloride], the “Percent inhibition of ulceration (%)” value was 88.8%.
`CN(C)c1ccc(Nc2nc3cccnc3s2)cc1` [Example 4, 2-(4-dimethylaminophenyl)amino[5,4-b]pyridothiazole hydrochloride] was tested, and the “Percent inhibition of ulceration (%)” value was 45.5%.
In the case of `c1ccc(CNc2nc3cccnc3s2)cc1` [Example 3, 2-benzylamino[5,4-b]pyridothiazole hydrochloride], the “Percent inhibition of ulceration (%)” value was 87.2%.
With `COc1ccc(Nc2nc3cccnc3s2)cc1` [Example 5, 2-(4-methoxyphenyl)-amino[5,4-b]pyridothiazole hydrochloride] the “Percent inhibition of ulceration (%)” value was 51.2%.
With `CNc1nc2cccnc2s1` [Example 1, 2-methylamino[5,4-b]pyridothiazole hydrochloride] the “Percent inhibition of ulceration (%)” value was 100.0%.
